Values of other authors as cited in patent publication US7700612B2, “Di-ester prodrugs of camptothecin, process for their preparation and their therapeutical applications” (Abraxis BioScience, LLC, priority 2003, dated 2010).

Key:
[1] = animal models; J. Med. Chem. 23, 554 (1980)
mouse leukemia L 1210 = conditions: initial test, Wall et al.

Compound	solubility in water	potency relative to the parent camptothecin [1]	activity against mouse leukemia L 1210 system (mouse leukemia L 1210)
CC[C@@](O)(C(=O)[O-])c1cc2n(c(=O)c1CO)Cc1cc3ccccc3nc1-2.[Na+] [CPT sodium carboxylate]	water-soluble	10-20%	–
CC[C@@]1(O)C(=O)OCc2c1cc1n(c2=O)Cc2cc3ccccc3nc2-1 [Camptothecin]	insoluble	–	active
